From patent publication US12465580B2, “Substituted fatty acids for treating non-alcoholic steatohepatitis” (BASF AS, priority 2015, dated 2025)

Experiments:
[1] = tested on: APOE*3Leiden.CETP double transgenic mice; experiment: Hepatic cholesterol content (liver lipids) in diet induced NAFLD/NASH mouse model; format: in vivo; conditions: for Effect on hepatic cholesterol ester vs control: Compound N p<0.001, Reference A p<0.05; for Liver lipids, Cholesterol ester (CE in FIG. 1), AVG ± SD / Liver lipids, Free cholesterol (FC in FIG. 1), AVG ± SD: ApoE*3L-CETP mice, high fat diet, 0.25% cholesterol w/w, daily gavage
Method: (§1) The APOE*3Leiden.CETP double transgenic mouse is expressing a variant of the human apolipoprotein E3 (APOE3), the APOE*3Leiden, in addition to the human apolipoprotein C1 (APOC1) and CETP. […] By increasing the cholesterol content of the diet in this model, all the characteristics of human NASH develop.
(§2) Studies were performed in APOE*3Leiden.CETP mice placed on a high fat diet (24% fat w/w) with varying cholesterol content (0.25-1% cholesterol w/w). In one study (using 1% cholesterol w/w), after a 3 weeks run-in period 17 (20%) low-responder mice were removed from the study and the remaining 65 mice were sub-divided into groups of 12 mice each (+5 in the control group), matched for plasma cholesterol, triglycerides, blood glucose, body weight and age (t=0) and treatment was started. The mice received a daily gavage between 07 hr00 and 10 hr00 with either Compound N, Reference A or control (corn oil). After 4, 8, 12, 16 and 20 weeks of treatment blood samples were taken after a 5 hour fasting period (also 5 hours after compound or vehicle administration). Plasma cholesterol and triglycerides were measured. After 14 weeks of treatment 5 representative mice from the control group were sacrificed in order to assess the NASH development and to determine the termination of the study. After 20 weeks of treatment mice were sacrificed by CO2 asphyxiation, heparin heart blood was sampled and tissues were collected. Hepatic steatosis, inflammation and collagen content were analyzed.
(§3) A further study was performed in APOE*3Leiden.CETP mice with a 4-week active treatment arm in mice placed on a high fat diet (24% fat and 0.25% cholesterol diet, both w/w) to collect additional metabolic data.
A mild decrease in cholesterol ester was also observed with Reference A (p<0.05). A 43% reduction in total hepatic cholesterol (statistics not performed).

[2] = tested on: APOE*3Leiden.CETP double transgenic mice; experiment: Hepatic inflammation (number of foci, inflammation score) in diet induced NAFLD/NASH mouse model; format: in vivo; conditions: for Inflammation Score (0-3), Mean ± SD / Inflammation, Number of foci, Mean ± SD: ApoE*3L-CETP mice, high fat/cholesterol diet, liver after 20 weeks of treatment
Method: as §1, §2

[3] = tested on: APOE*3Leiden.CETP double transgenic mice; experiment: Hepatic steatosis (macrovesicular and microvesicular) in diet induced NAFLD/NASH mouse model; format: in vivo; conditions: for Steatosis as % of the liver, Macrovesicular, Mean ± SD / Steatosis as % of the liver, Microvesicular, Mean ± SD: ApoE*3L-CETP mice, high fat/cholesterol diet, liver after 20 weeks of treatment; for Effect on macrovesicular steatosis vs control: Compound N p<0.001 vs. control
Method: as §1, §2

[4] = tested on: APOE*3Leiden.CETP double transgenic mice; experiment: Fecal bile acid content in diet induced NAFLD/NASH mouse model; format: in vivo; conditions: for Total bile acids (fecal), AVG ± SD: ApoE*3L-CETP double transgenic mice, feces
Method: as §1, §2, §3

[5] = tested on: APOE*3Leiden.CETP double transgenic mice; experiment: Hepatic fibrosis (collagen content) in diet induced NAFLD/NASH mouse model; format: in vivo; conditions: for Fibrosis, Hydroxyprolin/Prolin, Mean ± SD: ApoE*3L-CETP double transgenic mice, hepatic collagen content, after 20 weeks of treatment
Method: as §1, §2

[6] = tested on: APOE*3Leiden.CETP double transgenic mice; experiment: Total plasma cholesterol in diet induced NAFLD/NASH mouse model; format: in vivo
Method: as §1, §2, §3
Plasma HDL cholesterol values were adoubled (p<0.001, data not shown), underlying the fact that the reduction in plasma cholesterol was specific to the atherogenic apoB particle associated cholesterol fraction.

[7] = tested on: APOE*3Leiden.CETP double transgenic mice; conditions: earlier study; cited from earlier work

## CC/C=C\C/C=C\C/C=C\C/C=C\C/C=C\CCCCSC(CC)(CC)C(=O)O [Compound N, 2-ethyl-2-((5Z,8Z,11Z,14Z,17Z)-icosa-5,8,11,14,17-pentaenylthio)butanoic Acid]
[1]; 0.25% cholesterol diet w/w
  Effect on hepatic cholesterol ester vs control: significant decrease
[1]; 0.25% cholesterol diet w/w, statistics not performed
  Reduction in total hepatic cholesterol: 43%
[1]
  Liver lipids, Cholesterol ester (CE in FIG. 1), AVG ± SD: 10.6 ± 2.1 μg lipid/mg liver protein
  Liver lipids, Free cholesterol (FC in FIG. 1), AVG ± SD: 9.8 ± 1.2 μg lipid/mg liver protein
[2]
  Inflammation Score (0-3), Mean ± SD: 0.6 ± 0.8
  Inflammation, Number of foci, Mean ± SD: 0.6 ± 0.6
[2]; vs control
  Effect on total inflammation score: significant reduction
[2]; vs control, p<0.001
  Reduction in the number of inflammatory foci: approximately 85%
[3]
  Steatosis as % of the liver, Macrovesicular, Mean ± SD: 1.1 ± 1.0%
  Steatosis as % of the liver, Microvesicular, Mean ± SD: 57.9 ± 25.4%
  Effect on macrovesicular steatosis vs control: abolished macrovesicular steatosis
[4]
  Total bile acids (fecal), AVG ± SD: 3.2 ± 0.6 μmol/100 gr mouse/day
[4]; vs control, p=0.006
  Reduction in fecal bile acid excretion: 50%
[5]
  Fibrosis, Hydroxyprolin/Prolin, Mean ± SD: 0.027 ± 0.007
[5]; compared to control animals, p<0.005
  Reduction in hepatic collagen content: 30%
[6]; after 4 weeks versus control, p<0.001
  Reduction in total plasma cholesterol: 52%
[6]; p<0.001, data not shown
  Plasma HDL cholesterol values: doubled
[6]; t = 0 weeks (baseline, start of treatment)
  Total plasma cholesterol, t = 0, AVG ± SD: 6.4 ± 1.1 mM
[6]; t = 2 weeks of treatment
  Total plasma cholesterol, t = 2, AVG ± SD: 4.2 ± 0.7 mM
[6]; t = 4 weeks of treatment
  Total plasma cholesterol, t = 4, AVG ± SD: 4.7 ± 1.3 mM
[7]
  Effect on plasma cholesterol, previously shown: significantly decrease plasma cholesterol

## CC/C=C\C/C=C\C/C=C\C/C=C\C/C=C\CCCCOC(CC)C(=O)O (stereo not drawn) [Reference A, 2-((5Z,8Z,11Z,14Z,17Z)-icosa-5,8,11,14,17-pentaenyloxy)butanoic acid, reference compound]
[1]; 0.25% cholesterol diet w/w
  Effect on hepatic cholesterol ester vs control: mild decrease
[1]
  Liver lipids, Cholesterol ester (CE in FIG. 1), AVG ± SD: 17.0 ± 3.7 μg lipid/mg liver protein
  Liver lipids, Free cholesterol (FC in FIG. 1), AVG ± SD: 9.5 ± 1.3 μg lipid/mg liver protein
[2]
  Inflammation Score (0-3), Mean ± SD: 1.9 ± 1.2
  Inflammation, Number of foci, Mean ± SD: 1.9 ± 1.3
[2]; Reference A p<0.01
  Effect on inflammatory foci vs control: milder reduction
[3]
  Steatosis as % of the liver, Macrovesicular, Mean ± SD: 21.2 ± 15.0%
  Steatosis as % of the liver, Microvesicular, Mean ± SD: 34.6 ± 11.8%
  Effect on macrovesicular steatosis vs control: No significant effect
[4]
  Total bile acids (fecal), AVG ± SD: 4.0 ± 1.2 μmol/100 gr mouse/day
[4]; p<0.05 vs. control
  Effect on fecal bile acid excretion vs control: milder yet significant decrease
[7]
  Effect on plasma cholesterol, previously shown: significantly decrease plasma cholesterol

## CN(CCOc1ccc(CC2SC(=O)NC2=O)cc1)c1ccccn1 (stereo not drawn) [Rosiglitazone]
[2]
  Inflammation Score (0-3), Mean ± SD: 1.7 ± 1.2
  Inflammation, Number of foci, Mean ± SD: 1.6 ± 1.6
[3]
  Steatosis as % of the liver, Macrovesicular, Mean ± SD: 14.3 ± 20.2%
  Steatosis as % of the liver, Microvesicular, Mean ± SD: 52.5 ± 18.4%
  Effect on macrovesicular steatosis vs control: No significant effect
[5]
  Fibrosis, Hydroxyprolin/Prolin, Mean ± SD: 0.036 ± 0.007
